Data published in US20230332232A1, “COMPOSITIONS AND METHODS FOR DIAGNOSING AND TREATING A DYSTONIA” (Duke University, priority 2020, published 2023).

System: DYT1 knockin (Tor1a^delGAG/+) murine embryonic fibroblasts (MEFs)
Experiment: Untargeted LC/MS/MS proteomics of EVs from DYT1 MEFs exposed 24 hours to drug, compared with untreated DYT1 (Het) MEFs
Format: cell-based, mouse
Experimental: Methods for isolation and purification of exosomes and extracellular vesicles (EV) were extensively reviewed. Experiments were performed to arrive at a robust and reproducible protocol. The protocol used herein is that set forth in Théry et al, 2006, which is incorporated by reference for it teaching of this protocol. This protocol involves depleting serum-derived EVs from cell culture media by overnight ultracentrifugation and exchanging media for 1% FBS EV-depleted media. Media is then collected from cells following a 24-hour conditioning period and EVs are isolated by 18-hour ultracentrifugation at 100,000 g (FIG. 1A).
EVs were isolated from media of cultured murine embryonic fibroblasts (MEFs) prepared in-house according to protocols described by Xu 2005 from DYT1 knockin mice (Tor1a^delGAG/+) (Goodchild R E, et al. (2005) Neuron. 48:923-932) and littermate wild-type (WT) controls. The cultured MEFs from the DYT1 mice were exposed for 24 hours to Ritonavir (RTV) while the MEFs from WT mice were exposed to vehicle, ISRIB, or Salubrinal (SAL). The EVs isolated from these WT cells and DYT1 were characterized by untargeted proteomics and RNA-seq to identify differentially expressed proteins and RNAs as candidate biomarkers. Experimenter and Proteomics core staff were blinded to genotype of cell cultures throughout preparation and analysis phases.
Samples were first normalized to 20 μg and spiked with undigested casein at a total of 40 fmol/μg, 80 fmol/μg, or 160 fmol/μg, then reduced with 10 mM dithiolthreitol for 30 minute at 80° C. and alkylated with 20 mM iodoacetamide for 30 minutes at room temperature. Next, the samples were supplemented with a final concentration of 1.2% phosphoric acid and 741 μL of S-Trap (Protifi) binding buffer (90% MeOH/100 mM […]). Proteins were trapped on the S-Trap, digested using 20 ng/μL sequencing grade trypsin (Promega) for 1 hour at 47° C., and eluted using 50 mM TEAB, followed by 0.2% FA, and lastly using 50% CAN/0.2% FA. All samples were then lyophilized to dryness and resuspended in 40 μL 1% TFA/2% acetonitrile containing 12.5 fmol/μL yeast alcohol dehydrogenase (ADH_YEAST). A QC Pool was created from 3 uL of each sample. All QC Pools were run periodically throughout the acquisition period.
Quantitative LC/MS/MS was performed on 2 μL of each sample, using a nanoAcquity UPLC system (Waters Corp) coupled to a Thermo Orbitrap Fusion Lumos high resolution accurate mass tandem mass spectrometer (Thermo) via a nanoelectrospray ionization source. Briefly, the sample was first trapped on a Symmetry C18 20 mm×180 μm trapping column (5 μL/min at 99.9/0.1 v/v water/acetonitrile), after which the analytical separation was performed using a 1.8 μm Acquity HSS T3 C18 75 μm×250 mm column (Waters Corp.) with a 90 minute linear gradient of 5% to 30% acetonitrile with 0.1% formic acid at a flow rate of 400 nanoliters/minute (nL/min) with a column temperature of 55° C. Data collection on the Fusion Lumos mass spectrometer was performed in a data-dependent acquisition (DDA) mode of acquisition with a r=120,000 (@ m/z 200) full MS scan from m/z 375-1500 with a target AGC value of 2e5 ions. MS/MS scans were acquired at Rapid scan rate (Ion Trap) with an AGC target of 5e3 ions and a max injection time of 100 ms. The total cycle time for MS and MS/MS scans was 2 seconds. A 20 second dynamic exclusion was employed to increase depth of coverage. The total analysis cycle time for each sample injection was approximately 2 hours.

Measured: SAL Direction Opposite ISRIB?

O=C(/C=C/c1ccccc1)NC(NC(=S)Nc1cccc2cccnc12)C(Cl)(Cl)Cl (stereo not shown) [SAL, Salubrinal]
yes: DYT1 (Het) MEF EVs, protein: DNA replication licensing factor MCM6 | DYT1 (Het) MEF EVs, protein: DNA-directed RNA polymerases I and III subunit RPAC1 | DYT1 (Het) MEF EVs, protein: Protein arginine N-methyltransferase 3 | DYT1 (Het) MEF EVs, protein: Scavenger receptor class B member 1 | DYT1 (Het) MEF EVs, protein: Serine threonine-protein phosphatase 2A 55 kDa regulatory subunit B alpha isoform | DYT1 (Het) MEF EVs, protein: Small nuclear ribonucleoprotein-associated protein B | EV protein: 26S proteasome non-ATPase regulatory subunit 8 | EV protein: 60S [?] subunit biogenesis protein [?] homolog | EV protein: 60S ribosomal protein [?] | EV protein: 116 kDa [?] small nuclear ribonucleoprotein component | EV protein: AP-3 complex subunit [?] | EV protein: ATP-dependent RNA helicase [?] | EV protein: Acyl-protein thioesterase 2 | EV protein: Anaphase-promoting complex subunit 2 | EV protein: Anaphase-promoting complex subunit 5 | EV protein: Apolipoprotein M | EV protein: Calnexin | EV protein: Cell [?] cycle protein [?] homolog | EV protein: Coiled-coil domain-containing protein 22 | EV protein: Cullin-2 | EV protein: Cullin-5 | EV protein: Cullin-7 | EV protein: DNA [?] (r264) | EV protein: DNA ligase 1 | EV protein: DNA replication licensing factor [?] | EV protein: DNA-directed RNA polymerase II subunit RPB1 | EV protein: DNA-directed RNA polymerase II subunit RPB2 | EV protein: DNA-directed RNA polymerase II subunit RPB3 | EV protein: DNA-directed RNA polymerases I, II, and III subunit RPABC3 | EV protein: DNA-directed RNA polymerases I, II, and III subunit [?] | EV protein: Double-strand-break repair protein rad21 homolog | EV protein: Elongin-B | EV protein: Exosome complex exonuclease RRP44 | EV protein: Extended synaptotagmin-1 | EV protein: Gamma-tubulin complex component 2 | EV protein: General vesicular transport factor p115 | EV protein: Glycosylated lysosomal membrane protein | EV protein: Glycylpeptide N-tetradecanoyltransferase 1 | EV protein: Golgi reassembly-stacking protein 2 | EV protein: Histone-arginine methyltransterase CARM1 | EV protein: Importin-7 | EV protein: Leucyl-cystinyl aminopeptidase | EV protein: Mediator [?] RNA polymerase II transcription subunit 23 | EV protein: Metastasis-associated protein [?] (r222) | EV protein: Metastasis-associated protein [?] (r261) | EV protein: Microtubule-associated protein [?] | EV protein: Nuclear [?] complex protein [?] | EV protein: Nuclear cap-binding protein subunit 1 | EV protein: Nuclear receptor-binding protein | EV protein: Phosphoribosyl pyrophosphate synthase-associated protein 1 | EV protein: Pigment epithelium-derived factor | EV protein: Protein O-GlcNAcase | EV protein: Protein [?] 14 homolog | EV protein: Protein [?] (r160) | EV protein: Ran-binding protein 10 | EV protein: Ribosome biogenesis protein BOP1 | EV protein: Ribosome production factor 2 homolog | EV protein: Serine threonine-protein phosphatase 6 catalytic subinit | EV protein: Sorting nexin-1 | EV protein: Trascriptional activator protein [?] -alpha | EV protein: WD repeat-containing protein [?] | EV protein: [?] -1 (r154) | EV protein: [?] -1 (r232) | EV protein: [?] -conjucating enxyme [?] | EV protein: [?] kinase | EV protein: [?] myosin- [?] | EV protein: [?] repeat-containing protein 5A | EV protein: [?] small nuclear ribonucleoprotein 40 kDa protein | EV protein: p21-activated protein kinase-interacting protein 1 | EV protein: transportin-3
